Data taken from US6011000A, “Compositions for the treatment of blood disorders” (priority 1995, dated 2000).

Assays:
[1] = system: γ globin mRNA of bone marrow cells; conditions: cited from earlier work
[2] = system: fetal reticulocyte production; conditions: cited from earlier work
globin expression = conditions: cited from earlier work
[3] = system: erythroid cells (peripheral blood); test: Erythroid cell viability by fluorescent staining (Calcein-AM), FIG. 2; type: cell-based, human; conditions: 0.5 mM, vs untreated controls
Method: FIG. 2 Peripheral blood cell viability after incubation with arginine butyrate, dihydrocinnamic acid, phenoxyacetic acid and butyric acid ethyl ester.
Compositions were tested for the ability to directly stimulate erythroid cell growth. Cell growth stimulation is a useful property for an agent to be used to treat anemias and distinguishes such agents from the cytotoxic drugs currently being tested for treatment of hemoglobinopathies. Cell viability analyses were performed using fluorescent staining to detect living cells. Cells were in log phase of growth in 6-well dishes when used in proliferation assays. For enumeration of living cells, wells were washed once with medium to remove nonadherent or dead cells. Remaining live cells were labeled with 2 μM 2',7'-bis-(carboxyethyl)-5-(and 6)-carboxy-fluorescein acetoxy-methyl ester (Calcein-AM) (Molecular Probes; Eugene, Oreg.) for 20 minutes at 37° C. and washed once. Fluorescence intensity of live cells was read on a CytoFluor 2300 Fluorescence Plate Scanner (Millipore; Bedford, Mass.) at excitation and emission wavelengths of 485 and 530 nm, respectively. The fluorescence intensity of a well was proportional to the number of living cells in the well. Background fluorescence was measured separately for each plate and subtracted from all readings. Each experiment was performed in triplicate or quadruplicate. The standard deviation (SD) of repetitive readings was less than 30% of the mean. Results are depicted in FIG. 2.

human erythroid cells = test: DNA fragmentation by flow cytometry (degradation of DNA); type: cell-based
Method: Such activities might limit their utility for treatment of anemias such as occur in thalassemia, but alternatively would be useful for anticancer effects. To determine cell viability, human erythroid cells were cultured in the presence and absence of these compounds for 4 days and the amount of DNA fragmentation which occurred was measured.
Flow cytometric determination of DNA profiles and DNA fragmentation were determined. Cytometric analysis was performed with a FACScan (Becton Dickenson Instruments; Columbia, Md.). The data analysis and display were performed using the Cell-Fit software program. Approximately 0.5×10^6 cells were washed twice with PBS and resuspended in 1 ml of 1% sodium citrate, 0.1% Triton X-100 and 50 μg of propidium iodide/ml. Resulting permeabilized cells were kept in the dark at 4° C. overnight before DNA profile or DNA fragmentation analysis (Table 4).

[4] = Hemoglobin and red blood cell levels in a patient with thalassemia intermedia; type: in vivo, human; design: Hgb-A1 / Hgb-A2 / HbF: unit not given here; conditions: for RBC: 50 mg/kg 3 days/week
Method: This patient received isobutyramide at 50 mg/kg for 3 days/week over the course of the study.

MCF-7 cells = test: Growth/viability of human mammary carcinoma cells; type: cell-based; conditions: MCF7, 96 h, 1.0 mM, 4 days, read-out: growth decrease of MCF-7 cells
Method: Human mammary carcinoma cells (MCF-7) were cultured alone (controls) and with arginine butyrate or isobutyramide for 4 days. Viability was assayed by FACS after incubation with a fluorescent dye taken up by viable cells (FIG. 6). Growth was decreased by 50% with isobutyramide at 1.0 mM, about 60% with arginine butyrate at 0.5 mM, and greater than 90% with arginine butyrate at 1.0 mM.

[5] = system: system A transport (K562 cells and nucleated erythroblasts from fetal liver); test: Effects on system A amino acid transport (3H-MAIB uptake); type: cell-based, human
Method: Inhibition of nutrient uptake is undesirable for treatment of anemias. Methyl aminoisobutyric acid (MAIB) labeled with tritium (^3 H) is normally taken up by system A amino acid transport. Cold (unlabeled) compounds were added to cultures containing ^3 H-MAIB and incubated for 1 hour. Cells were harvested and the amount of ^3 H taken up by cells was quantitated by scintillation counting.

[6] = system: γ-globin promoter (-61 construct, K562 cells); type: cell-based, human
From the text: Functional assay underscores the important role of FRE-γ1 in γ-globin gene expression in K562 cells. To ascertain whether the FRE elements of the γ-globin promoter that were identified by in vivo footprinting were indeed involved in arginine butyrate inducibility for γ-globin gene expression, a series of 5' deletion constructs of the γ-globin promoter, extending from -256 to -61, were constructed and linked them to the NEO gene. Activity of the NEO gene of these constructs, in response to arginine butyrate treatment, was examined by transfecting these reporters into K562 cells. In K562 cells, a construct driven by 256 bp of promoter was able to direct NEO activity expression, resulting in colony formation. […] Deletion to position -61 reduced promoter activity to 33-40% of the activity seen with the -256 bp construct.

fetal globin production = conditions: cited from earlier work
Friend leukemia cells = conditions: cited from earlier work
fetal globin synthesis = conditions: cited from earlier work
[7] = system: fetal globin expression in K562 human erythroleukemia cells; conditions: cited from earlier work
[8] = system: fetal globin synthesis in tissue culture cells; conditions: cited from earlier work
[9] = system: cultured human erythrocytes; conditions: cited from earlier work
[10] = 50 mg/kg, 3 days/week, four month study

## Nc1ncn([C@@H]2O[C@H](CO)[C@@H](O)[C@H]2O)c(=O)n1 [AZA, 5-azacytidine]
[1]; continuous intravenous
  increase in γ globin mRNA of bone marrow cells: five- to seven-fold increase
[1]; in vivo
  population of stem cells in the bone marrow: significant alterations in the population of stem cells in the bone marrow

## Nc1ccn([C@@H]2O[C@H](CO)[C@@H](O)[C@@H]2O)c(=O)n1 [AraC, cytosine arabinoside]
[2]
  fetal reticulocyte production: induces fetal reticulocyte production

## NC(=O)NO [Hydroxyurea]
Globin expression
  specificity to fetal globin: did not appear to be very specific to fetal globin

## CC(C)C(N)=O [IBT, isobutyramide]
[3]
  erythroid cell growth and proliferation: either had no effect or stimulated erythroid cell growth and proliferation
Human erythroid cells; 1.0 mM to 2.0 mM, untreated 26%
  proportion of degraded DNA: 44%
Human erythroid cells; 2.0 mM, 4 days, control 26%, 22%
  Degraded DNA: 34%
Human erythroid cells; DNA fragmentation assays
  DNA fragmentation / cell viability / DNA integrity: decrease cell viability
[4]; [10]
  rise in hematocrit (Hct): 5.8%
  rise in hemoglobin (Hgb): 1.6 g/dL
  rise in reticulocytes (Retics): about 50%
  rise in total red blood cells (RBC): ~10^6 /μl
[4]; 50 mg/kg, 3 days/week, four month study, from 6.48
  total red blood cells (RBC) at end: 7.3 10^6 cells/μl
[4]; 50 mg/kg, 3 days/week, four month study, from 10.1
  hemoglobin (Hgb) at end: 11.7 g/dL
[4]; 50 mg/kg, 3 days/week, four month study, from 31.0%
  hematocrit (Hct) at end: 36.9%
[4]; Day 1
  HbF: 4.4
  Hct: 31.1%
  Hgb: 10.1 g/dL
  Hgb-A1: 89.2
  Hgb-A2: 6.4
  RBC: 6.48 10^6 cells/μl
[4]; Day 8
  HbF: 6.4
  Hct: 36.2%
  Hgb: 10.8 g/dL
  Hgb-A1: 89.2
  Hgb-A2: 6.2
  RBC: 6.76 10^6 cells/μl
[4]; Day 15
  HbF: 4.4
  Hct: 37.0%
  Hgb: 11.1 g/dL
  Hgb-A1: 89.2
  Hgb-A2: 6.4
  RBC: 6.89 10^6 cells/μl
[4]; Day 22
  HbF: 0.4
  Hct: 34.1%
  Hgb: 10.3 g/dL
  Hgb-A1: 89.1
  Hgb-A2: 6.9
  RBC: 6.28 10^6 cells/μl
[4]; Day 29
  HbF: 4.4
  Hct: 36.3%
  Hgb: 10.9 g/dL
  Hgb-A1: 88.6
  Hgb-A2: 7.0
  RBC: 6.61 10^6 cells/μl
[4]; Day 36
  HbF: 0.4
  Hct: 33.8%
  Hgb: 10.4 g/dL
  Hgb-A1: 88.4
  Hgb-A2: 7.6
  RBC: 6.28 10^6 cells/μl
[4]; Day 43
  HbF: 8.4
  Hct: 36.2%
  Hgb: 11.0 g/dL
  Hgb-A1: 88.7
  Hgb-A2: 6.5
  RBC: 6.38 10^6 cells/μl
[4]; Day 55
  HbF: 5.4
  Hct: 34.0%
  Hgb: 11.4 g/dL
  RBC: 6.68 10^6 cells/μl
[4]; Day 68
  HbF: 1.4
  Hct: 36.4%
  Hgb: 11.5 g/dL
  RBC: 6.68 10^6 cells/μl
[4]; Day 96
  Hct: 36.9%
  Hgb: 11.7 g/dL
  RBC: 7.33 10^6 cells/μl
[4]; four month study
  fetal globin (HbF): lack of increased fetal globin (HbF)
[4]; throughout the study
  Hemoglobin-A1 level: approximately constant
  hemoglobin-A2 level: approximately constant
MCF-7 cells
  inhibition at 1000 µM: 50%
[5]
  system A (neutral) amino acid transport: inhibited the neutral amino acid transport mechanism
[6]
  induction of construct activity: 2.5-4 fold
Fetal globin production
  stimulation of fetal globin production: effective in stimulating fetal globin production

## CC(=O)O [acetate]
Friend leukemia cells
  hemoglobin synthesis: induced hemoglobin synthesis
Fetal globin synthesis
  duration of positive effects: positive effects could only be maintained for very short periods of time
  erythrocyte precursor populations and fetal globin synthesis: increased both erythrocyte precursor populations and also fetal globin synthesis

## CCC(=O)O [propionate]
Friend leukemia cells
  hemoglobin synthesis: induced hemoglobin synthesis
[7]
  increase of fetal globin expression: most effective

## GM-CSF: granulocyte/macrophage-colony stimulating factor (GM-CSF)
[8]
  fetal globin synthesis: increase fetal globin synthesis in tissue culture cells

B1: activin: Activin, sometimes referred to as erythroid differentiating factor (EDF) (protein, UniProt P08476 311-426, looked up)
Inhibin beta A chain: GLECDGKVNICCKKQFFVSFKDIGWNDWIIAPSGYHANYCEGECPSHIAGTSGSSLSFHSTVINHYRMRGHSPFANLKSCCVPTKLRPMSMLYYDDGQNIIKKDIQNMIVEECGCS
modifications: Inhibin beta A chain
[9]
  hemoglobin accumulation: induced hemoglobin accumulation in cultured human erythrocytes

B2: inhibin: Inhibin, a disulfide linked hormone of two subunits (protein, UniProt P05111 233-366; P08476 311-426, looked up)
Inhibin alpha chain: STPLMSWPWSPSALRLLQRPPEEPAAHANCHRVALNISFQELGWERWIVYPPSFIFHYCHGGCGLHIPPNLSLPVPGAPPTPAQPYSLLPGAQPCCAALPGTMRPLHVRTTSDGGYSFKYETVPNLLTQHCACI
Inhibin beta A chain: B1 Inhibin beta A chain
[9]
  hemoglobin accumulation: induced hemoglobin accumulation in cultured human erythrocytes
